Structures can show the parent of a compound that is named as a salt.
Assays:
Assay in all cases: calcium imaging (Fluo4-AM, FLIPR) in transfected cells
Type in all cases: cell-based
Settings in all cases: agonist; HEK 293T-Galpha16gust44 cells; 2.5 mM probenecid at dye loading; lowest activating concentration, no EC50
ggTas2r7 = molecular target: T1, ggTas2r7 (Gallus gallus, UniProt Q2AB81)
T1 construct: gene TAS2R7; cDNA in pcDNA5FRT, transiently expressed in HEK 293T-Galpha16gust44 cells
T1 sequence (Q2AB81 1-321): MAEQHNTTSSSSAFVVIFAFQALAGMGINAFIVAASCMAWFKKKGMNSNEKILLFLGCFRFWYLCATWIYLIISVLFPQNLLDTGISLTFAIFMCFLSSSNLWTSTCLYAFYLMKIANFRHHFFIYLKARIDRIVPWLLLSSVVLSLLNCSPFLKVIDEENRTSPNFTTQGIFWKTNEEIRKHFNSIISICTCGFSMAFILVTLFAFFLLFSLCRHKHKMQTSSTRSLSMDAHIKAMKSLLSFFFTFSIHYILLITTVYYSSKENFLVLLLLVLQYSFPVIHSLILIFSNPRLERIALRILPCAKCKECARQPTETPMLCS

ggTas2r1 = molecular target: T2, ggTas2r1 (Gallus gallus, UniProt Q2AB83)
T2 construct: gene TAS2R40; cDNA in pcDNA5FRT, transiently expressed in HEK 293T-Galpha16gust44 cells
T2 sequence (Q2AB83 1-311): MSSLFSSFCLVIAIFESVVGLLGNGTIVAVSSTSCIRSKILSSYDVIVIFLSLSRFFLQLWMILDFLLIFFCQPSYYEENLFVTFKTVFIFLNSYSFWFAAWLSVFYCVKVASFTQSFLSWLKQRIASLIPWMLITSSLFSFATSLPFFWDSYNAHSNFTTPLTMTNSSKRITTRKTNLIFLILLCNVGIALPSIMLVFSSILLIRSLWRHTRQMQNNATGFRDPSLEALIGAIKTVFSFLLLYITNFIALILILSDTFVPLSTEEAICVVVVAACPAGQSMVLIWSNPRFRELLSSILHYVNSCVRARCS

ggTas2r2 = molecular target: T3, ggTas2r2 (Gallus gallus, UniProt A0A1D5PXM6)
T3 construct: gene LOC101747503; cDNA in pcDNA5FRT, transiently expressed in HEK 293T-Galpha16gust44 cells
T3 sequence (A0A1D5PXM6 1-311): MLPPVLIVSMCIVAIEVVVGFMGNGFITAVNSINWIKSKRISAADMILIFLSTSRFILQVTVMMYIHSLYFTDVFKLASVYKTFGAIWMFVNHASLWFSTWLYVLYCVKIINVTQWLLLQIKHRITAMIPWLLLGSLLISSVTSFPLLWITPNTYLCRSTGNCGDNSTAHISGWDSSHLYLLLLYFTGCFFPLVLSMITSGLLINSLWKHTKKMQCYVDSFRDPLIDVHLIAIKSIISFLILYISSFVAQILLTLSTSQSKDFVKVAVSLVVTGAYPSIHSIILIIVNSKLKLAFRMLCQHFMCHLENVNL

SMILES | Threshold Concentrations (mM) / In-Vitro (ggTas2r7) [mM] | Threshold Concentrations (mM) / In-Vitro (ggTas2r1) [mM] | Threshold Concentrations (mM) / In-Vitro (ggTas2r2) [mM]
Oc1cc(O)c2c(c1)O[C@H](c1ccc(O)c(O)c1)[C@@H](O)C2 [(+)-catechin] | 0.3 | – | –
C=C[C@H]1CN2CC[C@H]1C[C@H]2[C@H](O)c1ccnc2ccc(OC)cc12 [quinine hydrochloride] | 0.01 | 0.01 | 0.01

Source: paper PMC6154005, “From Cell to Beak: In-Vitro and In-Vivo Characterization of Chicken Bitter Taste Thresholds” (Molecules : A Journal of Synthetic Chemistry and Natural …, 2017)
